From US20240082212A1, “USE OF MDMA FOR TREATMENT OF STRESS-RELATED DISORDERS” (priority 2022, published 2024)
“Also recorded” adds a separate entry of the source.

Columns and labels:
CD (Sprague Dawley) rats [1] = test: Rat functional observation battery (FOB) neurobehavioral evaluation after cumulative SC dosing; type: in vivo
Method: The observations were assessed through a rat functional observation battery (FOB) and continuous physiological measurements on the day of cumulative dosing, which are provided in further detail below.
(§1) Methods. A total of 42 adult male CD® (Sprague Dawley) rats (Charles River Laboratories) were surgically implanted with DSI radiotelemetry devices by personnel at Charles River Laboratories Raleigh, NC, per their test site SOPs. Telemetry devices supported continuous recording of temperature, activity, blood pressure and heart rate. Telemeterized rats were shipped to the Charles River Laboratories testing facility (Mattawan, MI) and acclimated to the environment for at least 1 week prior to experimentation. Animals were pair-housed in solid bottom cages with nonaromatic bedding. On the dosing day, animals were singly housed and then returned to the paired cohort following the dosing/telemetry recording phase. Diet (Lab Diet® Certified Rodent Diet #5CR4) and tap water via an automatic water system were available ad libitum, except during designated procedures. Temperature and humidity were maintained according to the Testing Facility SOP. Animals were randomized into treatment groups using a standard, by weight, measured value randomization procedure. Body weight was determined for each rat prior to dosing.
(§2) As illustrated in the Table, a total of 36 rats were included in the study. The vehicle and 2 test article doses were administered in a volume of 1 mL/kg to each of 3 groups of n=12 telemeterized rats via subcutaneous injection four times on a given day, followed by neurobehavioral evaluations. This series was repeated 3 times on study. Each group received all 3 dose levels of the applicable test or control article in ascending order with a 1-week washout between dose levels.
(§3) Mortality/cage side clinical observations were conducted for all study animals at least twice daily beginning upon receipt through termination, except on days of receipt and termination where frequency was at least once daily. Detailed clinical observations were conducted for all study animals prior to each of the four cumulative doses in a series. Individual body weights were conducted for all study animals at transfer, prior to randomization, on the day of dosing on each of the 3 cycles of dosing. The body weights recorded at transfer and prior to randomization are not reported but are maintained in the study file. Veterinary care was available throughout the course of the study, and animals were examined by the veterinary staff as needed based on clinical signs or other changes. All animals were provided with HydroGel the night prior to their respective dosing days to potentially mitigate any animal welfare issues related to fluid loss/dehydration.
Neurobehavioral evaluations (blinded) were conducted for all study animals 1 hour following the last (4th) cumulative dose of the series. The neurobehavioral parameters evaluated included: activity measurements (arousal/alertness, posture/body carriage, stereotypy, rearing, and appearance), autonomic measurements (exophthalmus, lacrimation, erected fur, pupil response, salivation, defecation, and palpebral closure/ptosis), excitability measurements (vocalizations, startle response, ease of removal, handling reactivity, and convulsions), neuromuscular measurements (gait/mobility, grip strength/response, air righting reflex, tremor, and body tone), physiological measurements (respiration and body temperature), and sensorimotor measurements (touch response/tactile reflex and thermal response).

CD (Sprague Dawley) rats [2] = test: Rat telemetry: heart rate, blood pressure, body temperature, activity after cumulative SC dosing; type: in vivo
Text: as §1, §2, §3
Telemetry monitoring was conducted for all animals 2 hours prior to dosing and through to 7.5 hours following the last (4th) cumulative dose of each series, which included continuous data collection of body temperature, activity, heart rate, and blood pressure (systolic, diastolic, and mean arterial) using telemetry.
The total period of time over which the statistical analyses were conducted encompassed the entire dosing period for all animals (i.e., Dose 1 through 7.5 hour post-4th dose) in an effort to draw conclusions regarding the effects of the dosing procedure and cumulative changes by allowing comparisons between the cumulative dosing periods. The following statistical analyses were performed for each analysis segment.
All time-series data comparisons conducted via statistical analysis are relative to the control treatment and are based on the LSMean values. Additionally, the change values used for the statistical analysis were calculated using a baseline of the 2 hours of pre-dose data, prior to the first compound injection of the series. The raw change values were analyzed.

[3] = 1 h after last of 4 hourly SC injections, R-MDMA and racemic MDMA 10, 20 mg/kg/day, S-MDMA 5, 10 mg/kg/day
[4] = FOB, cumulative SC dosing, dose groups stated in the value
[5] = telemetry, cumulative SC dosing, dose groups stated in the value

CNC(C)Cc1ccc2c(c1)OCO2 (single isomer, unassigned) [R-MDMA, R(−)-3,4-methylenedioxymethamphetamine]
arousal/alertness and rearing (CD (Sprague Dawley) rats [1]; [3]): dose-dependent decreases in arousal/alertness and rearing
ease of removal from the home cage and handling reactivity (excitability) (CD (Sprague Dawley) rats [1]; [3]): Dose-dependent increased difficulty in removal from the home cage and increased handling reactivity
forelimb grip strength (CD (Sprague Dawley) rats [1]; [3]): dose-dependent statistically significant decreases in forelimb grip strength
salivation and erected fur (autonomic) (CD (Sprague Dawley) rats [1]; [3]): Dose-dependent increased salivation and erected fur
unkempt appearance (CD (Sprague Dawley) rats [1]; [3]): increased incidence of unkempt appearance in a dose-dependent manner
stereotypies (mouth movements/weaving, circling/retropulsion, sniffing) (CD (Sprague Dawley) rats [1]; 1 h after last of 4 hourly SC injections, highest doses: S-MDMA 10, racemic-MDMA 20 mg/kg/day, R-MDMA 10, 20 mg/kg/day): No stereotypical behaviors were reported
Rank Order Activity Measurement Effects (CD (Sprague Dawley) rats [1]; [4]): S-MDMA (5 mg/kg/day) < R-MDMA (10 mg/kg/day) < Rac.-MDMA (10 mg/kg/day); also recorded: Rac.-MDMA (20 mg/kg/day) < S-MDMA (10 mg/kg/day) < R-MDMA (20 mg/kg/day); also recorded: R-MDMA (0 mg/kg/day) < R-MDMA (10 mg/kg/day) < R-MDMA (20 mg/kg/day); also recorded: Rac.-MDMA (20 mg/kg/day) < S-MDMA (10 mg/kg/day) < R-MDMA (10 mg/kg/day)
Rank Order Autonomic Measurement Effects (CD (Sprague Dawley) rats [1]; [4]): R-MDMA (10 mg/kg/day) < S-MDMA (5 mg/kg/day) < Rac.-MDMA (10 mg/kg/day); also recorded: R-MDMA (20 mg/kg/day) < S-MDMA (10 mg/kg/day) < Rac-MDMA (20 mg/kg/day); also recorded: R-MDMA (0 mg/kg/day) < R-MDMA (10 mg/kg/day) < R-MDMA (20 mg/kg/day); also recorded: R-MDMA (10 mg/kg/day) < S-MDMA (10 mg/kg/day) = Rac-MDMA (20 mg/kg/day)
Rank Order Excitability Measurement Effects (CD (Sprague Dawley) rats [1]; [4]): R-MDMA (10 mg/kg/day) < S-MDMA (5 mg/kg/day) < Rac.-MDMA (10 mg/kg/day); also recorded: R-MDMA (20 mg/kg/day) = S-MDMA (10 mg/kg/day) < Rac-MDMA (20 mg/kg/day); also recorded: R-MDMA (0 mg/kg/day) < R-MDMA (10 mg/kg/day) < R-MDMA (20 mg/kg/day); also recorded: R-MDMA (10 mg/kg/day) < S-MDMA (10 mg/kg/day) < Rac-MDMA (20 mg/kg/day)
Rank Order Neuromuscular Measurement Effects (CD (Sprague Dawley) rats [1]; [4]): R-MDMA (10 mg/kg/day) < S-MDMA (5 mg/kg/day) < Rac.-MDMA (10 mg/kg/day); also recorded: R-MDMA (20 mg/kg/day) = S-MDMA (10 mg/kg/day) < Rac-MDMA (20 mg/kg/day); also recorded: R-MDMA (0 mg/kg/day) < R-MDMA (10 mg/kg/day) < R-MDMA (20 mg/kg/day); also recorded: R-MDMA (10 mg/kg/day) < S-MDMA (10 mg/kg/day) < Rac-MDMA (20 mg/kg/day)
Rank Order Physiological Measurement Effects (CD (Sprague Dawley) rats [1]; [4]): R-MDMA (10 mg/kg/day) < S-MDMA (5 mg/kg/day) < Rac.-MDMA (10 mg/kg/day); also recorded: R-MDMA (20 mg/kg/day) < S-MDMA (10 mg/kg/day) = Rac-MDMA (20 mg/kg/day); also recorded: R-MDMA (0 mg/kg/day) = R-MDMA (10 mg/kg/day) = R-MDMA (20 mg/kg/day); also recorded: R-MDMA (10 mg/kg/day) < S-MDMA (10 mg/kg/day) = Rac-MDMA (20 mg/kg/day)
Rank Order Sensorimotor Measurement Effects (CD (Sprague Dawley) rats [1]; [4]): S-MDMA (5 mg/kg/day) < Rac-MDMA (10 mg/kg/day) < R-MDMA (10 mg/kg/day); also recorded: S-MDMA (10 mg/kg/day) < Rac-MDMA (20 mg/kg/day) < R-MDMA (20 mg/kg/day); also recorded: R-MDMA (0 mg/kg/day) < R-MDMA (10 mg/kg/day) < R-MDMA (20 mg/kg/day)
thermal response times (CD (Sprague Dawley) rats [1]; at levels at least two-fold that of vehicle-treated groups, 1 h after last of 4 hourly SC injections): Statistically significant increases in thermal response times
stepwise increases in blood pressure or heart rate with repeated doses (CD (Sprague Dawley) rats [2]; 4 hourly SC injections during telemetry monitoring): no stepwise increases in blood pressure or heart rate were observed
hemodynamic parameters (systolic/diastolic/mean arterial blood pressures and heart rate) (CD (Sprague Dawley) rats [2]; 4 hourly SC injections, cumulative doses 5, 10, or 20 mg/kg/day): dose-dependent blood pressure-increasing effects
body temperature response (CD (Sprague Dawley) rats [2]; R-MDMA 10 mg/kg/day, 4 hourly SC injections): hypothermic response
body temperature response (CD (Sprague Dawley) rats [2]; R-MDMA 20 mg/kg/day, 4 hourly SC injections): hyperthermic response
activity (implanted telemetry devices) (CD (Sprague Dawley) rats [2]; all cumulative doses (5, 10, or 20 mg/kg/day)): Activity-increasing effects
recovery of blood pressure effects (CD (Sprague Dawley) rats [2]; by the end of telemetry monitoring (7.5 h after 4th dose)): only test article examined which produced recoverable effects by the end of telemetry monitoring
heart rate increase (CD (Sprague Dawley) rats [2]; maximum change, R-MDMA and racemic MDMA 10, 20 mg/kg/day, S-MDMA 5, 10 mg/kg/day, 4 hourly SC injections): up to +23%
peak body temperatures (CD (Sprague Dawley) rats [2]; overall mean magnitude of change, 4 hourly SC injections): 38.6 °C
Rank Order Blood Pressures (Systolic, Diastolic, and Mean Arterial) Effects (CD (Sprague Dawley) rats [2]; [5]): R-MDMA (10 mg/kg/day) < S-MDMA (5 mg/kg/day) < Rac.-MDMA (10 mg/kg/day); also recorded: R-MDMA (20 mg/kg/day) < S-MDMA (10 mg/kg/day) < Rac-MDMA (20 mg/kg/day); also recorded: R-MDMA (0 mg/kg/day) < R-MDMA (10 mg/kg/day) < R-MDMA (20 mg/kg/day); also recorded: R-MDMA (10 mg/kg/day) < S-MDMA (10 mg/kg/day) < Rac-MDMA (20 mg/kg/day)
Rank Order Body Temperature Effects (CD (Sprague Dawley) rats [2]; [5]): R-MDMA (10 mg/kg/day) < S-MDMA (5 mg/kg/day) < Rac.-MDMA (10 mg/kg/day); also recorded: R-MDMA (20 mg/kg/day) < S-MDMA (10 mg/kg/day) < Rac-MDMA (20 mg/kg/day); also recorded: R-MDMA (0 mg/kg/day) < R-MDMA (10 mg/kg/day) < R-MDMA (20 mg/kg/day); also recorded: R-MDMA (10 mg/kg/day) < S-MDMA (10 mg/kg/day) < Rac-MDMA (20 mg/kg/day)
Rank Order General Activity Effects (CD (Sprague Dawley) rats [2]; [5]): R-MDMA (10 mg/kg/day) < S-MDMA (5 mg/kg/day) < Rac.-MDMA (10 mg/kg/day); also recorded: R-MDMA (20 mg/kg/day) < S-MDMA (10 mg/kg/day) < Rac-MDMA (20 mg/kg/day); also recorded: R-MDMA (0 mg/kg/day) < R-MDMA (10 mg/kg/day) < R-MDMA (20 mg/kg/day); also recorded: R-MDMA (10 mg/kg/day) < S-MDMA (10 mg/kg/day) < Rac-MDMA (20 mg/kg/day)
Rank Order Heart Rate Measurement Effects (CD (Sprague Dawley) rats [2]; [5]): R-MDMA (10 mg/kg/day) < S-MDMA (5 mg/kg/day) < Rac.-MDMA (10 mg/kg/day); also recorded: R-MDMA (20 mg/kg/day) < S-MDMA (10 mg/kg/day) < Rac-MDMA (20 mg/kg/day); also recorded: R-MDMA (0 mg/kg/day) < R-MDMA (10 mg/kg/day) < R-MDMA (20 mg/kg/day); also recorded: R-MDMA (10 mg/kg/day) < S-MDMA (10 mg/kg/day) < Rac-MDMA (20 mg/kg/day)
